One compound from patent US20230184743A1, “SCREENING METHODS TO IDENTIFY SMALL MOLECULE COMPOUNDS THAT PROMOTE OR INHIBIT THE GROWTH OF CIRCULATING TUMOR CELLS, AND USES THEREOF” (University of Southern California, priority 2020, published 2023) can be followed below.

Molecules are shown by their SMILES. Entries after “also recorded” stand apart in the source; their conditions may differ.

For assay [1], the system named is single CTCs from 4 patient-derived CTC lines (BRx07, BRx42, BRx50, and BRx68). As to the kind of experiment: Validation of candidate compounds: single CTC proliferation over 24 days (AUC). In kind it is cell-based, human. As for the experimental part:
Cell culture. CTC lines were previously derived from metastatic breast cancer patients. CTC lines were cultured in ultra-low attachment plates with RPMI 1640 medium, supplemented with EGF (20 ng/mL), bFGF (20 ng/mL), 1×B27 and 1× antibiotic/antimycotic, in 4% 02 and 5% CO2. Single CTCs were cultured in GravityTRAP™ ULA 96 well Plates (PerkinElmer). Wells on the edges of the plates were not used to avoid influence from evaporation. Media with fresh compounds were exchanged every 3 days by inserting pipet tips onto the platform of the wells to prevent accidentally aspirating suspended CTCs at the bottom. CTC numbers were counted manually under an inverted microscope every 6 days.
FACS sorting. Cells were pelleted and resuspended into single cell suspension in 1% BSA in PBS buffer with 7-AAD. Live single CTCs were sorted directly into 96-well GravityTRAP™ ULA Plates using a MoFlo cell sorter (Beckman Coulter). An inverted microscope was used to manually confirm that there was 1 CTC per well, 1 hour after sorting.
Compounds screening. Compounds were from the StemSelect library obtained from the Choi Family Therapeutic Screening Facility at the Eli and Edythe Broad CIRM Center for Regenerative Medicine and Stem Cell Research at USC. Each compound was given a code to ensure unbiased assessment and blinded to the investigators. Compound information is listed in Appendix, at Table 1 of US Provisional Application No. U.S. 62/990,445, incorporated herein by reference). In the first-round screening, compounds were used with […] concentration. Stocks of compounds (10 mM concentration in DMSO) were stored in aliquots at −80° C. All compounds were thawed and refrozen for a maximum of 2 times. In the second-round validation, fresh compounds were dissolved in DMSO (Millipore sigma), and aliquots were stored at −20° C. and used only once without refreezing. Only wells started from single cells on day 0 after sorting were used in the screening experiment. Data collection was done in batches.
Statistical analysis. […] AUC was calculated for each well in each batch, by plotting days in the x-axis and the corresponding number of cells in the y-axis, then drawing a line to connect the number of cells from the starting count day to the next count day until the end day, and finally calculating the area under this line as the sum of areas of trapezoids. […] Statistical tests were performed using R. For absolute number of cells quantification, total number of cells at end of experiment in each well in each batch was compared between treated cells and untreated control and significance was analyzed with Student t test. For other experiments, data were analyzed with Student t test, and represent the means±SEM of at least triplicate samples or averages ±SD of independent analyses, as indicated. […]

Assay [2] relates to Glutathione (GSH) in BRx68 cells. Briefly: Glutathione measurement. The format is cell-based, human. The settings on record: 300 μmol/L NAC. As for the experimental part:
Glutathione measurement. A total of 1×10^6 BRx68 cells were cultured with or without 300 μmol/L NAC for 6 or 13 days. At the end of incubation periods, cells were washed in ice cold PBS, lysed in 5% 5-sulfo-salicylic acid dehydrate by vortexing and repeating cycles of freeze-thaw, then centrifuged at 14,000 rpm for 10 minutes and supernatant was transferred to clean tubes. Glutathione (GSH) was measured using a GSH Colorimetric Detection Kit (Invitrogen) following the manufacturer's instructions.

For the compound `CC(=O)N[C@@H](CS)C(=O)O` [NAC, N-acetyl-L-cysteine], the “additional growth advantages from treatment once a single cell colony reaches a critical size” value in assay [1] (after initial expansion from single CTCs) is “does not seem to confer additional growth advantages”. The “single CTC expansion compared to controls” value in assay [1] (all 4 CTC lines, NAC 300 μM, P1C2 1 μM or 0.5 μM, 24 days) is on record as “promote growth of single CTCs; also recorded: statistically significant improvement”. For the same compound, the “total GSH level in NAC treated cells vs untreated control cells” value is reported as 44.42±5.165 in assay [2] (day 6) and “not at day 13” in assay [2] (day 13).
